Experimental data as given in patent publication US9409905B2, “Antibacterial compounds and methods for use” (PTC THERAPEUTICS, INC., priority 2011, dated 2016).
In brackets after ≈: the same amount, converted by molar mass.

Experiments:
E. coli 25922 = experiment: Antibacterial activity, microbroth dilution MIC (Table 1); type: cell-based, Escherichia coli; conditions: Escherichia coli; microbroth dilution; control Gram-negative E. coli 25922 strain; read-out: MIC, 25922
Outline: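 Using broth microdilution, MIC endpoints (μg/mL) mark where visible growth no longer appears; the panel spans sensitive and control Gram-negative strains plus a Gram-positive strain.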

[1] = test system: Escherichia coli (E. coli) BAS849; experiment: as above; type: cell-based; conditions: microbroth dilution, super sensitive Gram-negative E. coli BAS849, read-out: MIC, BAS849
Outline: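 Microbroth dilution was used. MIC, in μg/mL, is the lowest drug concentration preventing macroscopically visible growth under the test conditions.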

[2] = test system: Staphylococcus aureus (S. aureus) 29213; experiment: as above; type: cell-based; conditions: microbroth dilution, Gram-positive S. aureus 29213, read-out: MIC, 29213
Outline: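 Values are MICs (μg/mL): the smallest drug amount at which macroscopically visible bacterial growth is absent under assay conditions, from a microdilution method in broth.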

E. coli LZ3111 = experiment: Antibacterial activity, MIC, quinolone resistant strain (Table 2); type: cell-based; conditions: Escherichia coli, LZ3111, read-out: MIC LZ3111
Outline: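 MIC values (μg/mL) came from a microbroth dilution assay, scored as the lowest drug concentration at which no growth was visible by eye.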

| SMILES | MIC (E. coli 25922) [µg/mL] | MIC [1] [µg/mL] | MIC [2] [µg/mL] | MIC (E. coli LZ3111) [µg/mL] |
| --- | --- | --- | --- | --- |
| CCc1cc(C(=O)O)c(=O)[nH]c1-c1ccc2nc(CN3CCCC3)cn2c1.Cl.Cl [Cpd 61, 5-ethyl-2-oxo-6-(2-(pyrrolidin-1-ylmethyl)imidazo[1,2-a]pyridin-6-yl)-1,2-dihydropyridine-3-carboxylic acid dihydrochloride] | 12.5 to 150 | 12.5 to 150 | 12.5 to 150 | 12.5 to 150 |
| CCc1c(-c2ccc3c(c2)c(Cl)cn3C)[nH]c(=O)c(C(=O)O)c1O [Cpd 363, 6-(3-chloro-1-methyl-1H-indol-5-yl)-5-ethyl-4-hydroxy-2-oxo-1,2-dihydropyridine-3-carboxylic acid] | 12.5 to 150 (≈ 36 to 433 µM) | < 1 | 1 to 3.5 (≈ 2.88 to 10.1 µM) | 1 to 3.5 (≈ 2.88 to 10.1 µM) |
| CCc1c(-c2ccc3c(c2)cc(CNCC2CCCCCC2)n3C)[nH]c(=O)c(C(=O)O)c1O [Cpd 301, 6-(2-((cycloheptylmethylamino)methyl)-1-methyl-1H-indol-5-yl)-5-ethyl-4-hydroxy-2-oxo-1,2-dihydropyridine-3-carboxylic acid] | 12.5 to 150 (≈ 27.7 to 332 µM) | < 1 | 3.5 to 12.5 (≈ 7.75 to 27.7 µM) | 12.5 to 150 (≈ 27.7 to 332 µM) |
| CCc1cc(C(=O)O)c(=O)[nH]c1-c1ccc2c(c1)cc(CN1CC3CCCNC3C1)n2C (stereo not shown) [Cpd 136, 5-ethyl-6-(1-methyl-2-((tetrahydro-1H-pyrrolo[3,4-b]pyridin-6(2H,7H,7aH)-yl)methyl)-1H-indol-5-yl)-2-oxo-1,2-dihydropyridine-3-carboxylic acid] | 3.5 to 12.5 (≈ 8.05 to 28.8 µM) | 1 to 3.5 (≈ 2.3 to 8.05 µM) | 12.5 to 150 (≈ 28.8 to 345 µM) | 12.5 to 150 (≈ 28.8 to 345 µM) |
| CCc1c(-c2ccc3c(c2)cc(CN2CC(C(=O)N(C)C)C2)n3C)[nH]c(=O)c(C(=O)O)c1O [Cpd 270, 6-(2-((3-(dimethylcarbamoyl)azetidin-1-yl)methyl)-1-methyl-1H-indol-5-yl)-5-ethyl-4-hydroxy-2-oxo-1,2-dihydropyridine-3-carboxylic acid] | 3.5 to 12.5 (≈ 7.73 to 27.6 µM) | < 1 | 3.5 to 12.5 (≈ 7.73 to 27.6 µM) | 12.5 to 150 (≈ 27.6 to 331 µM) |
| CCc1cc(C(=O)O)c(=O)[nH]c1-c1ccc2c(c1)cc(CN1CCC(N(C)C)C1)n2C (stereo not shown) [Cpd 128, 6-(2-((3-(dimethylamino)pyrrolidin-1-yl)methyl)-1-methyl-1H-indol-5-yl)-5-ethyl-2-oxo-1,2-dihydropyridine-3-carboxylic acid] | 1 to 3.5 (≈ 2.37 to 8.28 µM) | < 1 | 12.5 to 150 (≈ 29.6 to 355 µM) | 12.5 to 150 (≈ 29.6 to 355 µM) |
| CCc1c(-c2ccc3c(c2)cc(CNC(C)c2ccncc2)n3C)[nH]c(=O)c(C(=O)O)c1O.Cl (stereo not shown) [Cpd 226, 5-ethyl-4-hydroxy-6-(1-methyl-2-((1-(pyridin-4-yl)ethylamino)methyl)-1H-indol-5-yl)-2-oxo-1,2-dihydropyridine-3-carboxylic acid hydrochloride] | 1 to 3.5 | < 1 | 1 to 3.5 | 12.5 to 150 |
| CCc1c(-c2ccc3c(c2)cc(CNCC(C)(C)C)n3C)[nH]c(=O)c(C(=O)O)c1O.Cl [Cpd 237, 5-ethyl-4-hydroxy-6-(1-methyl-2-((neopentylamino)methyl)-1H-indol-5-yl)-2-oxo-1,2-dihydropyridine-3-carboxylic acid hydrochloride] | 1 to 3.5 | < 1 | 3.5 to 12.5 | 12.5 to 150 |
| CCc1cc(C(=O)O)c(=O)[nH]c1-c1ccc2ccn(C)c2c1 [Cpd 7, 5-ethyl-6-(1-methyl-1H-indol-6-yl)-2-oxo-1,2-dihydropyridine-3-carboxylic acid] | 12.5 to 150 (≈ 42.2 to 506 µM) | 1 to 3.5 (≈ 3.37 to 11.8 µM) | 12.5 to 150 (≈ 42.2 to 506 µM) | 12.5 to 150 (≈ 42.2 to 506 µM) |
| CCc1cc(C(=O)O)c(=O)[nH]c1-c1ccc2c(c1)cc([C@H]1CCCN1C)n2C [Cpd 68, (R)-5-ethyl-6-(1-methyl-2-(1-methylpyrrolidin-2-yl)-1H-indol-5-yl)-2-oxo-1,2-dihydropyridine-3-carboxylic acid] | 1 to 3.5 (≈ 2.64 to 9.22 µM) | < 1 | 12.5 to 150 (≈ 32.9 to 395 µM) | 12.5 to 150 (≈ 32.9 to 395 µM) |
| CCc1c(-c2ccc3c(c2)cc(CN2C[C@@H](C)N(C)[C@@H](C)C2)n3C)[nH]c(=O)c(C(=O)O)c1O [Cpd 170, 5-ethyl-4-hydroxy-6-(1-methyl-2-(((3S,5R)-3,4,5-trimethylpiperazin-1-yl)methyl)-1H-indol-5-yl)-2-oxo-1,2-dihydropyridine-3-carboxylic acid] | 3.5 to 12.5 (≈ 7.73 to 27.6 µM) | < 1 | 12.5 to 150 (≈ 27.6 to 331 µM) | 12.5 to 150 (≈ 27.6 to 331 µM) |
| CCc1c(-c2ccc3c(c2)cc(CN(C)C)n3C)[nH]c(=O)c(C(=O)O)c1C(=O)O [Cpd 111, 6-(2-((dimethylamino)methyl)-1-methyl-1H-indol-5-yl)-5-ethyl-2-oxo-1,2-dihydropyridine-3,4-dicarboxylic acid] | 12.5 to 150 (≈ 31.5 to 377 µM) | 12.5 to 150 (≈ 31.5 to 377 µM) | 12.5 to 150 (≈ 31.5 to 377 µM) | 12.5 to 150 (≈ 31.5 to 377 µM) |
| CCc1cc(C(=O)O)c(=O)[nH]c1-c1cc2cc(CN(CC)CC)n(C)c2cc1Cl [Cpd 92, 6-(6-chloro-2-((diethylamino)methyl)-1-methyl-1H-indol-5-yl)-5-ethyl-2-oxo-1,2-dihydropyridine-3-carboxylic acid] | 12.5 to 150 (≈ 30.1 to 361 µM) | 12.5 to 150 (≈ 30.1 to 361 µM) | 12.5 to 150 (≈ 30.1 to 361 µM) | 12.5 to 150 (≈ 30.1 to 361 µM) |
| CCc1cc(C(=O)O)c(=O)[nH]c1-c1ccc2c(c1)c(C#N)cn2C [Cpd 72, 6-(3-cyano-1-methyl-1H-indol-5-yl)-5-ethyl-2-oxo-1,2-dihydropyridine-3-carboxylic acid] | 12.5 to 150 (≈ 38.9 to 467 µM) | 3.5 to 12.5 (≈ 10.9 to 38.9 µM) | 12.5 to 150 (≈ 38.9 to 467 µM) | 12.5 to 150 (≈ 38.9 to 467 µM) |
| CCc1cc(C(=O)O)c(=O)[nH]c1-c1ccc2c(c1)cc(CN1CC[C@H](N)C1)n2C [Cpd 126, (S)-6-(2-((3-aminopyrrolidin-1-yl)methyl)-1-methyl-1H-indol-5-yl)-5-ethyl-2-oxo-1,2-dihydropyridine-3-carboxylic acid] | 12.5 to 150 (≈ 31.7 to 380 µM) | 3.5 to 12.5 (≈ 8.87 to 31.7 µM) | 12.5 to 150 (≈ 31.7 to 380 µM) | 12.5 to 150 (≈ 31.7 to 380 µM) |
| CCc1c(-c2ccc3c(c2)cc(CN[C@@H](C)c2ccccc2)n3C)[nH]c(=O)c(C(=O)O)c1O.Cl [Cpd 216, (S)-5-ethyl-4-hydroxy-6-(1-methyl-2-((1-phenylethylamino)methyl)-1H-indol-5-yl)-2-oxo-1,2-dihydropyridine-3-carboxylic acid hydrochloride] | 1 to 3.5 | < 1 | 1 to 3.5 | 12.5 to 150 |
| CCc1c(-c2ccc3c(c2)cc(CNCc2cccc(F)c2)n3C)[nH]c(=O)c(C(=O)O)c1O [Cpd 298, 5-ethyl-6-(2-((3-fluorobenzylamino)methyl)-1-methyl-1H-indol-5-yl)-4-hydroxy-2-oxo-1,2-dihydropyridine-3-carboxylic acid] | 1 to 3.5 (≈ 2.22 to 7.79 µM) | < 1 | 1 to 3.5 (≈ 2.22 to 7.79 µM) | 12.5 to 150 (≈ 27.8 to 334 µM) |
| CCc1c(-c2ccc3c(c2)cc(CN2CCC(F)(F)C2)n3C)[nH]c(=O)c(C(=O)O)c1O [Cpd 176, 6-(2-((3,3-difluoropyrrolidin-1-yl)methyl)-1-methyl-1H-indol-5-yl)-5-ethyl-4-hydroxy-2-oxo-1,2-dihydropyridine-3-carboxylic acid] | 12.5 to 150 (≈ 29 to 348 µM) | < 1 | 1 to 3.5 (≈ 2.32 to 8.11 µM) | 12.5 to 150 (≈ 29 to 348 µM) |
| Cn1c(CN2CCCC2)cc2cc(-c3[nH]c(=O)c(C(=O)O)c(O)c3-c3ccc(F)cc3)ccc21 [Cpd 309, 5-(4-fluorophenyl)-4-hydroxy-6-(1-methyl-2-(pyrrolidin-1-ylmethyl)-1H-indol-5-yl)-2-oxo-1,2-dihydropyridine-3-carboxylic acid] | 3.5 to 12.5 (≈ 7.58 to 27.1 µM) | < 1 | 12.5 to 150 (≈ 27.1 to 325 µM) | 12.5 to 150 (≈ 27.1 to 325 µM) |
| CCc1cc(C(=O)O)c(=O)[nH]c1-c1ccc2c(c1)cc(CNC(C)(C)c1ccccc1)n2C [Cpd 115, 5-ethyl-6-(1-methyl-2-((2-phenylpropan-2-ylamino)methyl)-1H-indol-5-yl)-2-oxo-1,2-dihydropyridine-3-carboxylic acid] | < 1 | < 1 | 1 to 3.5 (≈ 2.25 to 7.89 µM) | 12.5 to 150 (≈ 28.2 to 338 µM) |
| CCc1c(-c2ccc3c(c2)cc(CN(C)Cc2ccncc2)n3C)[nH]c(=O)c(C(=O)O)c1O.Cl [Cpd 225, 5-ethyl-4-hydroxy-6-(1-methyl-2-((methyl(pyridin-4-ylmethyl)amino)methyl)-1H-indol-5-yl)-2-oxo-1,2-dihydropyridine-3-carboxylic acid hydrochloride] | 3.5 to 12.5 | < 1 | 3.5 to 12.5 | 12.5 to 150 |
| CCc1c(-c2ccc3c(c2)cc(CN(C)Cc2ccccc2)n3C)[nH]c(=O)c(C(=O)O)c1O.Cl [Cpd 218, 6-(2-((benzyl(methyl)amino)methyl)-1-methyl-1H-indol-5-yl)-5-ethyl-4-hydroxy-2-oxo-1,2-dihydropyridine-3-carboxylic acid hydrochloride] | 12.5 to 150 | < 1 | 3.5 to 12.5 | 12.5 to 150 |
| CCc1cc(C(=O)O)c(=O)[nH]c1-c1ccc2c(c1)c(CN(CC)CC)cn2C [Cpd 76, 6-(3-((diethylamino)methyl)-1-methyl-1H-indol-5-yl)-5-ethyl-2-oxo-1,2-dihydropyridine-3-carboxylic acid] | 12.5 to 150 (≈ 32.8 to 393 µM) | 12.5 to 150 (≈ 32.8 to 393 µM) | 12.5 to 150 (≈ 32.8 to 393 µM) | 12.5 to 150 (≈ 32.8 to 393 µM) |
| CCc1c(-c2ccc3c(c2)cc(CN2CCC(NC(C)=O)C2)n3C)[nH]c(=O)c(C(=O)O)c1O (stereo not shown) [Cpd 183, 6-(2-((3-acetamidopyrrolidin-1-yl)methyl)-1-methyl-1H-indol-5-yl)-5-ethyl-4-hydroxy-2-oxo-1,2-dihydropyridine-3-carboxylic acid] | 1 to 3.5 (≈ 2.21 to 7.73 µM) | < 1 | 12.5 to 150 (≈ 27.6 to 331 µM) | 12.5 to 150 (≈ 27.6 to 331 µM) |
| CCc1c(-c2ccc3c(c2)cc(CNCc2ccccc2OC)n3C)[nH]c(=O)c(C(=O)O)c1O [Cpd 293, 5-ethyl-4-hydroxy-6-(2-((2-methoxybenzylamino)methyl)-1-methyl-1H-indol-5-yl)-2-oxo-1,2-dihydropyridine-3-carboxylic acid] | < 1 | < 1 | 3.5 to 12.5 (≈ 7.58 to 27.1 µM) | 12.5 to 150 (≈ 27.1 to 325 µM) |
